Data as given in PMC6154692, “Determination of Vancomycin in Human Serum by Cyclodextrin-Micellar Electrokinetic Capillary Chromatography (CD-MEKC) and Application for PDAP Patients” (Molecules : A Journal of Synthetic Chemistry and Natural …, 2017).

Columns and labels:
PDAP patients = assay: Clinical safety observation in PDAP patients treated with i.p. vancomycin; format: in vivo, human
Protocol: Patients were treated with intraperitoneal (i.p.) vancomycin (Vancocin, Eli Lilly) for 1.0 g every 5–7 days. Nine PDAP patients’ samples were collected, and the trough concentrations of VCM were measured. […] Side effects were not observed in patients who were treated with VCM. The 15–20 µg/mL range was determined in three samples (17.06 µg/mL, 15.39 µg/mL, and 19.25 µg/mL), which was reported as the effective treatment window. […] In view of patients’ residual renal function and peritoneal permeability, levels <15 µg/mL were found in four samples (12.88 µg/mL, 5.48 µg/mL, 8.90 µg/mL, and 9.30 µg/mL). ISPD recommends that re-dosing is appropriate once serum vancomycin levels go below 15 µg/mL.

[1] = parameters: method as in doi:10.1016/0378-5173(93)90252-B; details: cited from earlier work
Description: The pH value of BGE is an important factor in CE. VCM is a glycopeptide antibiotic with quite a complex structure. It contains six functional groups which participate in acid-base equilibria. Namely, its net charge in solution strongly depends on the solution pH. […] Protonations of amino (primary and secondary amino) and three phenolate groups take place between pH 13 and 5 in multiply overlapping stages. […] Owing to t ...

[2] = Stability of VCM in spiked human serum QC samples (bench-top, 30-day, autosampler, freeze-thaw), read by CD-MEKC; format: in vitro ADME; details: for Accuracy (%), autosampler stability / Accuracy (%), freeze–thaw stability / Accuracy (%), bench-top stability / Accuracy (%), 30-day stability: found vs initial concentration, CD-MEKC UV; for Accuracy (%), autosampler stability: 25 °C for 8 h; for Accuracy (%), autosampler stability / Accuracy (%), freeze–thaw stability / Accuracy (%), bench-top stability / Accuracy (%), 30-day stability / Measured Concentration (Mean ± SD), bench-top stability / Measured Concentration (Mean ± SD), autosampler stability / Measured Concentration (Mean ± SD), freeze–thaw stability / Measured Concentration (Mean ± SD), 30-day stability: n = 5; for Accuracy (%), freeze–thaw stability: three freeze–thaw cycles; for Accuracy (%), bench-top stability: 25 °C for 2 h; for Accuracy (%), 30-day stability: −80 °C, 30 days; for Measured Concentration (Mean ± SD), bench-top stability: ambient temperature (25 °C) for 2 h; for Measured Concentration (Mean ± SD), bench-top stability / Measured Concentration (Mean ± SD), autosampler stability / Measured Concentration (Mean ± SD), freeze–thaw stability / Measured Concentration (Mean ± SD), 30-day stability: CD-MEKC UV 210 nm; for Measured Concentration (Mean ± SD), autosampler stability: spiked human serum sample, kept at ambient temperature (25 °C) for 8 h; for Measured Concentration (Mean ± SD), freeze–thaw stability: after three freeze–thaw cycles; for Measured Concentration (Mean ± SD), 30-day stability: stored at −80 °C for 30 days
Protocol: Analyte stability determinations comprised short-term temperature stability (bench-top stability), long-term stability (30-day stability), autosampler stability, and freeze-thaw cycles stability, which were evaluated by analyzing three QC levels in VCM. The peak areas obtained from both stability tests were compared with the peak areas obtained with freshly prepared samples. The mean values and standard deviations of the ratios between the concentrations found and initial concentration were used for stability evaluation.
The BGE used in this study was 25 mM borate buffer with 50 mM SDS and 2% sulfobutyl-β-CD (pH 9.50). It was prepared by weighting appropriate amounts of Na2B4O7∙10H2O, SDS, and sulfobutyl-β-CD, followed by thoroughly mixing and dissolving with 100 mL deionized water. NaOH (1 mol/L) was used for adjusting pH to 9.50. BGE solutions were prepared freshly every day and filtered through a 0.45 μm hydrophilic cellulose membrane filter prior to use. The separation voltage was 15 kV (+) → (−). Hydrodynamic injection mode was performed at a pressure of 0.5 psi for 5 s. The capillary was conditioned by rinsing with 0.1 mol/L NaOH (1 min) followed by BGE (5 min) sequentially between the runs in order to maintain an active and reproducible inner surface.
Standard stock solution (1 mg/mL) of VCM and the IS were prepared in methanol. Working standard solutions (ranging from 10 to 500 µg/mL) were prepared daily by diluting the stock solution to the desired concentration with deionized water. The IS solution was prepared by deionized water at the concentration of 200 µg/mL. The standard solutions were stored in brown glass vials to protect from light at 4 °C. Calibration samples were obtained by diluting standard working solutions (10 μL) with drug-free human control serum (90 μL), to span a calibration standard range of 1–100 µg/mL for VCM. QC samples (3, 15, 80 µg/mL) were independently prepared by spiking an appropriate amount of the working standard solution in drug-free human control serum.
A simple and rapid sample preparation was applied by protein precipitation in SiroccoTM 96-well filtration plate (Waters Corp., Milford, MA, USA). Standard curve samples (100 μL), QC samples, and subject serum samples were added individually into 96-well plates by an eight-channel hand-held pipettor. To precipitate the serum protein, 200 μL ACN (acetonitrile) solution c ontaining 100 μg/mL of the IS solution was added to each sample (standards, QCs, and samples). Sirocco plates were capped and mixed by vortexing for 3 min and held for 15 min, subsequently placed on a vacuum manifold, and filtered to remove any precipitated material. The filtrate was collected into another 96-well plate and was evaporated to dryness with a nitrogen flow at 37 °C (TURBOVAP 96, Biotage, Uppsala, Sweden). All dry residues were reconstituted by the addition of 50 μL water. Finally, the plates were vortex mixed for 1 min, followed by centrifugation for 10 min at 12,000 rpm at 4 °C using a 5804 R Eppendorf refrigerated centrifuge (Hamburg, Germany). The supernatant was transferred to the autosampler for injection onto the CE.

[3] = intraperitoneal, in the presence of peritonitis; ref guideline of ISPD; cited from earlier work
[4] = spiked human serum, HQC 80 µg/mL
[5] = spiked human serum, LQC 3 µg/mL
[6] = spiked human serum, MQC 15 µg/mL

Compound: CN[C@H](CC(C)C)C(=O)N[C@H]1C(=O)N[C@@H](CC(N)=O)C(=O)N[C@H]2C(=O)N[C@H]3C(=O)N[C@H](C(=O)N[C@H](C(=O)O)c4cc(O)cc(O)c4-c4cc3ccc4O)[C@H](O)c3ccc(c(Cl)c3)Oc3cc2cc(c3O[C@@H]2O[C@H](CO)[C@@H](O)[C@H](O)[C@H]2O[C@H]2C[C@](C)(N)[C@H](O)[C@H](C)O2)Oc2ccc(cc2Cl)[C@H]1O [VCM, vancomycin]
- Side effects (PDAP patients; PDAP patients treated with VCM, i.p. 1.0 g every 5–7 days): not observed
- Changes in renal function before and after treatment (PDAP patients; nine PDAP patients, i.p. vancomycin 1.0 g every 5–7 days): No significant changes
- pI value [1]: about 7.10
- Stability in spiked serum samples (in words) ([2]; bench-top, 30-day, autosampler and freeze-thaw conditions, three QC levels): stable
- Accuracy (%), autosampler stability ([2]; HQC 80 µg/mL): 105.70%
- Accuracy (%), freeze–thaw stability ([2]; HQC 80 µg/mL): 108.80%
- Accuracy (%), autosampler stability ([2]; LQC 3 µg/mL): 103.80%
- Accuracy (%), freeze–thaw stability ([2]; LQC 3 µg/mL): 110.40%
- Accuracy (%), autosampler stability ([2]; MQC 15 µg/mL): 107.10%
- Accuracy (%), freeze–thaw stability ([2]; MQC 15 µg/mL): 104.60%
- Accuracy (%), bench-top stability [2, 4]: 108.40%
- Accuracy (%), 30-day stability [2, 4]: 106.60%
- Accuracy (%), bench-top stability [2, 5]: 107.80%
- Accuracy (%), 30-day stability [2, 5]: 104.70%
- Accuracy (%), bench-top stability [2, 6]: 102.70%
- Accuracy (%), 30-day stability [2, 6]: 104.90%
- Measured Concentration (Mean ± SD), bench-top stability ([2]; spiked human serum (table title: plasma), LQC 3 µg/mL): 3.271 ± 0.02 µg/mL
- Measured Concentration (Mean ± SD), autosampler stability ([2]; HQC 80 µg/mL): 85.57 ± 0.29 µg/mL
- Measured Concentration (Mean ± SD), autosampler stability ([2]; LQC 3 µg/mL): 3.15 ± 0.01 µg/mL
- Measured Concentration (Mean ± SD), autosampler stability ([2]; MQC 15 µg/mL): 16.26 ± 0.09 µg/mL
- Measured Concentration (Mean ± SD), freeze–thaw stability [2, 4]: 88.01 ± 0.23 µg/mL
- Measured Concentration (Mean ± SD), bench-top stability [2, 4]: 87.69 ± 0.38 µg/mL
- Measured Concentration (Mean ± SD), 30-day stability [2, 4]: 86.24 ± 0.52 µg/mL
- Measured Concentration (Mean ± SD), freeze–thaw stability [2, 5]: 3.35 ± 0.02 µg/mL
- Measured Concentration (Mean ± SD), 30-day stability [2, 5]: 3.18 ± 0.01 µg/mL
- Measured Concentration (Mean ± SD), freeze–thaw stability [2, 6]: 15.88 ± 0.07 µg/mL
- Measured Concentration (Mean ± SD), bench-top stability [2, 6]: 15.59 ± 0.09 µg/mL
- Measured Concentration (Mean ± SD), 30-day stability [2, 6]: 15.92 ± 0.08 µg/mL
- Fraction of i.p. vancomycin absorbed [3]: approximately 90%
